Entries after “also recorded” stand apart in the source; their conditions may differ. Read-outs that look alike come from different tables or passages of the source.
Key:
[1] = in vitro; conditions: African green monkey, CC50 (half-maximal cytotoxic concentration)
[2] = tested on: Vero E6 cells; conditions: African green monkey
[3] = tested on: SARS-CoV-2-infected Vero E6 cells; experiment: Immunofluorescence assays; format: cell-based, African green monkey; conditions: IHUMI-6, MOI 0.1, 48 h post-infection, versus infected untreated, p = 0.03
[4] = tested on: SARS-CoV-2-infected Vero E6 cells; format: cell-based; conditions: 4 µM, 2 h, then IHUMI-6 infection 24 h
[5] = tested on: SARS-CoV-2 hCoV-19_IPL_France strain; format: cell-based; conditions: Vero E6-TMPRSS2 cells, MOI 0.025, 16 h, increasing doses
[6] = tested on: SARS-CoV-2 hCoV-19_IPL_France strain; format: cell-based; conditions: wild-type Vero E6 cells, MOI 0.025, 16 h, increasing doses
[7] = in vitro; conditions: human
[8] = tested on: cathepsin L (CTSL); parameters: method as in ref 16, 33 = [16]; conditions: cited from earlier work
[9] = tested on: SARS-CoV-2 IHUMI-6 strain; experiment: microbe, parasite or virus in culture; format: cell-based
[10] = tested on: SARS-CoV-2 BetaCoV/France/IDF0372/2020 strain; parameters: species or system K18-hACE2 mouse; conditions: mouse, in vivo
[11] = tested on: SARS-CoV-2 IHUMI-6 strain; format: cell-based; conditions: Vero E6 cells, according to the strain used
[12] = tested on: cathepsin B (CTSB); parameters: method as in ref 16, 33 = [16]; conditions: cited from earlier work
[13] = tested on: autophagic flux in Vero E6 cells; experiment: Western blot of autophagy markers LC3-II and p62 with or without Baf A1; format: cell-based, African green monkey; conditions: uninfected Vero E6 cells, 24 h, with or without Baf A1 for the last 4 h, normalized to GAPDH
[14] = tested on: SARS-CoV-2; parameters: method as in ref 28 = [28]; conditions: Vero E6 system; read-out: EC50, SARS-CoV-2 cytopathic effect; cited from earlier work

CCN(CC)CCCC(C)Nc1ccnc2cc(Cl)ccc12 (centres unmarked) [Chloroquine, chloroquine]
CC50 [1]: 73.2 µM | CC50 [2]: 73.2 µM

CC(C)(C)NC1CCN(c2cc(NCc3ccc(Cl)cc3)nc3ccccc23)CC1 [GNS561, Ezurpimtrostat]
LC3B signal (LC3B clusters) [3]: enhanced | volume (area) of autophagic vacuoles in the cytoplasm [4]: increase in the volume of autophagic vacuoles | SARS-CoV-2 N protein level compared to untreated [5]: did not alter the N protein level | SARS-CoV-2 N protein level compared to untreated [6]: did not alter the N protein level | CC50 at 48 h [7]: 4.6 µM | enzymatic activity of cathepsin L [8]: significantly impair | selectivity index [9]: moderate | EC50 ([9]; Severe acute respiratory syndrome coronavirus 2, in Homo sapiens, human lung Calu-3 cells, IHUMI-6 strain, 48 h, read-out: EC50 antiviral activity): 1.1 µM | lung SARS-CoV-2 viral load [10]: decline in SARS-CoV-2 virions in the lungs; also recorded: downward trend; also recorded: moderate | lung tissue ultrastructure (autophagic vacuoles, multilamellar bodies) [10]: autophagic vacuole accumulation with increased electron density | inhibitory concentration relative to remdesivir [11]: 50.5–200 times | enzymatic activity of cathepsin B [12]: significantly impair | Normalized LC3-II protein expression [13]: increased in a dose-dependent manner | p62 protein level [13]: The same observation

Cc1ccc(NCCN(C)CCNc2ccnc3cc(Cl)ccc23)c2c(=O)c3ccccc3sc12 [ROC-325]
EC50 [14]: 3.28 µM

— publication PMC8778678 (Viruses, 2022)
